By viability is commonly meant a read-out of living cells in per cent, often relative to untreated cells.

In PMC12040169 (PLOS Biology, 2025) one finds viability data, which are given here for 79 compounds.

A short description of the data set: in vitro. The settings on record: human, hela cells, % viability.
`CCOC(=O)C(CNC(=O)c1c(C)nn(C)c1C)Cc1ccccc1` (stereo not shown) [CBK305276]: the viability at 28.5 h, 10 µM is 90%.

With `CCN(CCO)c1ccc(Nc2cc(-c3ccc(C#N)cc3)ncn2)cc1` [CBK037764], the viability at 28.5 h, 10 µM was 87.9%. With `Cc1ccc(S(=O)(=O)N2CCCC(C(=O)O)C2)cc1` (stereo not shown) [CBK100948], the viability at 28.5 h, 10 µM stood at 88.6%. Take `S=c1[nH]nc(CN2CCSCC2)n1-c1ccc(Cl)cc1` [CBK013868]: the viability at 28.5 h, 10 µM was found to be 105%. `O=C(CSc1oc(-c2ccco2)nc1S(=O)(=O)c1ccccc1)c1ccccc1` [CBK268424]: the viability at 28.5 h, 10 µM is 96.9%.

In the case of `CSc1cccc(-c2cnccc2-n2ccnc2)c1` [CBK177155], the viability at 28.5 h, 10 µM worked out at 92.5%. The value for `COc1ccc(Nc2nc(N)nc(CSc3nncn3C)n2)cc1` [CBK266730] was 88.9%; that for `COc1ccccc1CNC(=O)c1cc(-c2ccccc2)nc2ccccc12` [CBK294458] was 104%; that for `CCc1cccc(CN2CCC(CNC(=O)Nc3ccc(Cl)cc3)CC2)c1` [CBK269151] was 93.4%. The value for `CC(C(=O)N1CCC(C(=O)c2nccs2)CC1)c1ccccc1` (stereo not shown) [CBK284163] was 80.8%; that for `CC(NC(=O)CCc1cnn(C)c1)c1cccc(-n2ccnc2)c1` (stereo not shown) [CBK306139] was 97.3%; that for `CCOC(=O)C1CCN(C(=O)Nc2cc(C)on2)CC1` [CBK306280] was 88.5%. The result for `O=C(CN1CCCCCC1)N/N=C/c1ccc(F)c(Br)c1` [CBK261596] reads 94.7%; that for `CSCC(=O)N1C[C@@H]2C[C@H](C1)c1c(-c3cncnc3)ccc(=O)n1C2` [CBK289195], 79.4%; that for `Cn1ncc(N2CCN(C(=O)CCN3CCCCCC3=O)CC2)cc1=O` [CBK306508], 109%. With `CC(C)(C)OC(=O)NCCNC(=O)c1cccnc1NCc1ccc2c(c1)OCO2` [CBK160117], the viability at 28.5 h, 10 µM came out at 104%. The value for `CCN(CC)S(=O)(=O)c1ccc(C)c(C(=O)Oc2cccc(-c3cnc4ccccc4n3)c2)c1` [CBK264577] was 85.8%; that for `c1ccc(N2CCN(c3cccc(-c4cc5ccccc5o4)n3)CC2)nc1` [CBK036875] was 107%; that for `COc1ccc(C(=O)N[C@H]2C[C@H]3C(=O)NC[C@@H](CCC(=O)N4CCN(C)CC4)N3C2)cc1` [CBK289016] was 90.6%. The value for `CC(C)(C)c1ccc(S(=O)(=O)NCc2ccc(C(=O)NCc3ccccn3)cc2)cc1` [CBK267248] was 115%; that for `OCCn1c(-c2ccc(Br)cc2)cn2c3ccccc3nc12` [CBK262167] was 95.2%; that for `O=C(Cc1c[nH]c2ccccc12)N1CCC2(CCCN(CCO)C2)C1` (stereo not shown) [CBK132045] was 95.9%. For the compound `COc1ccccc1-c1nccnc1OCCc1c[nH]c2ccccc12` [CBK106807], the viability at 28.5 h, 10 µM amounted to 87.7%. Take `Cc1csc2ncc(C(=O)Nc3ccccc3F)c(=O)n12` [CBK287455]: the viability at 28.5 h, 10 µM amounted to 113%.

In the case of `CC(NC(=O)Cn1ccnc1-c1ccccc1)c1ccccn1` (stereo not shown) [CBK281885], the viability at 28.5 h, 10 µM worked out at 103%.

In the case of `O=C(COc1ccccc1)N/N=C/c1ccc[nH]1` [CBK261281], the viability at 28.5 h, 10 µM came to 104%. The value for `CC(C)(C)C1=Nn2c(nnc2-c2n[nH]c3c2CCC3)SC1` [CBK287894] was 87.7%; that for `Cc1noc(C(C)C)c1C(=O)NC1CCCN(c2ccn(C)n2)C1=O` (stereo not shown) [CBK306356] was 75.8%. `O=C(O)c1[nH]c2ccccc2c1C(c1ccsc1)c1c(C(=O)O)[nH]c2ccccc12` [CBK267811]: the viability at 28.5 h, 10 µM was 103%.

With `Cc1cc2nc(/C(C#N)=C/c3cc(C)n(-c4ccc(C(=O)O)cc4)c3C)[nH]c2cc1C` [CBK269105], the viability at 28.5 h, 10 µM stood at 92.1%. The value for `Cc1nc(O)cc(C2CCN(C(=O)c3csc4c3CCCC4)CC2)n1` [CBK307618] was 104%; that for `CC1CCN(c2nnnc3c2sc2nc(N4CCOCC4)c4c(c23)CC(C)(C)SC4)CC1` [CBK268062] was 90.4%; that for `O=C(CSc1ccc2ccccc2c1)NCc1ccco1` [CBK269699] was 80.3%.

In the case of `CC(c1ccccc1)n1c(S)nnc1-c1cc(C(C)(C)C)n[nH]1` (stereo not shown) [CBK268954], the viability at 28.5 h, 10 µM was 92.2%. The result for `CS(=O)(=O)N1CC2(CCN(CC3CCCCC3)CC2)c2ccccc21` [CBK084018] reads 96.8%; that for `CC(Nc1oc(-c2ccco2)nc1S(=O)(=O)c1ccc(F)cc1)c1ccccc1` (stereo not shown) [CBK267671], 73.2%; that for `O=C(O)CCSc1nnc(-c2cccnc2)n1-c1ccccc1` [CBK268734], 102%. The result for `Cc1nn(CCC#N)c(C)c1CCC(=O)NCc1ccccn1` [CBK305693] reads 82.5%; that for `Cc1ncccc1C(=O)N1CCC(F)CC1` [CBK200398], 85.4%; that for `Cc1nnc(-c2cc(CC(C)C)n(-c3cccc(C(=O)N4CC=CCC4)c3)n2)o1` [CBK114630], 91.6%. The value for `COc1cc(NC(=O)N(CCC#N)C2CCCCC2)cc(OC)c1OC` [CBK156380] was 94.4%; that for `COc1ccc(C(=O)N2CCC3(CCN(C(=O)CC4CCCCC4)C3)C2)cc1OC` (stereo not shown) [CBK131770] was 94.7%. As for `O=C(NCc1ccccc1OC1CCNC1)c1ccccn1` (stereo not shown) [CBK029464T], the viability at 28.5 h, 10 µM was 91.6%.

`Cc1cc(C)cc(-c2ccc(CC3(C(=O)NCC4CCCOC4)CCOCC3)cc2)c1` (stereo not shown) [CBK286524]: the viability at 28.5 h, 10 µM is 96.5%. On to `CC(=O)Oc1ccc2c(=O)cc(N(C)C)oc2c1C` [CBK016581], for which the viability at 28.5 h, 10 µM is 60.5%. The value for `O=C(Nc1ccc2[nH]ccc2c1)c1ccc(Cl)cc1` [CBK159668] was 98.4%; that for `O=c1[nH]c2ccccc2cc1CNc1ccc(F)cc1F` [CBK281933] was 84.1%; that for `CCOC(=O)c1[nH]c(C)c(/C=C/C2=CCN(C)CC2)c1C` [CBK283761] was 99.3%. For `CN1C(=O)/C(=C2\SC(=S)N(C(CCC(=O)O)C(=O)O)C2=O)c2ccccc21` (stereo not shown) [CBK261010], the viability at 28.5 h, 10 µM was found to be 92.3%. Regarding `CCOC(=O)N1CCN(C(=O)c2ccc(CS(=O)(=O)c3ccc(C)cc3)cc2)CC1` [CBK268659], the viability at 28.5 h, 10 µM was 88.3%. The result for `Cc1cc(NC(=O)OCc2cccnc2C)c2ccccc2n1` [CBK200129] reads 95.9%. The result for `CC(C)(C)c1ccc(S(=O)(=O)N2CCCC[C@H]2CCOC(=O)c2ncccc2C(=O)O)cc1` [CBK200066] reads 98.7%. The result for `O=C1NC/C=C/CC2(CCN(Cc3ccccc3)CC2)C(=O)NCCOc2ccccc21` [CBK292097] reads 103%; that for `O=C(NCc1ccccn1)c1ccc(CNS(=O)(=O)c2cccc(Cl)c2)cc1` [CBK267297], 100%. With `CC(C)C1OC(NC2CC(C)(C)NC(C)(C)C2)=NC1=O` (stereo not shown) [CBK070360T], the viability at 28.5 h, 10 µM was 97.1%. The value for `O=C(NCCc1cccnc1)C1CCCN(c2nc3c(-c4ccccc4)csc3c(=O)[nH]2)C1` (stereo not shown) [CBK215495] was 88.7%. For `COc1ccc(Nc2cc(-c3ccco3)ncn2)c(OC)c1` [CBK090761], the viability at 28.5 h, 10 µM came to 105%. For the compound `CCCCNC(=O)NS(N)(=O)=O` [CBK022990], the viability at 28.5 h, 10 µM was 109%. The value for `COc1cc(/C=C2\SC(=S)N(CC(=O)NNC(=O)c3ccccc3O)C2=O)ccc1O` [CBK261301] was 94%. Take `O=C(O)c1cccc(N2C(=O)c3cccc4c(Cl)ccc(c34)C2=O)c1` [CBK299836]: the viability at 28.5 h, 10 µM worked out at 90.3%.

With `O=C(NC(=O)N1CCSC1)c1c(Cl)cccc1Cl` [CBK028794], the viability at 28.5 h, 10 µM is 85.3%. Turning to `COc1ccc(C(CNC(=O)C2C(C(=O)O)C2(C)C)N(C)C)cc1` (stereo not shown) [CBK286700], the viability at 28.5 h, 10 µM came out at 110%. Consider `CN(Cc1nc(-c2cccnc2)no1)S(=O)(=O)c1ccc2ccccc2c1` [CBK267385], for which the viability at 28.5 h, 10 µM worked out at 87.2%. The result for `CCC(C)NC(=O)Cn1cccc2cc(C3CCNCC3)nc1-2` (stereo not shown) [CBK284681] reads 110%; that for `CC(NS(=O)(=O)c1cccs1)c1ccccc1` (stereo not shown) [CBK043601], 114%; that for `Cc1cccc(NC(=O)C2CC(=O)N=C(Nc3nc4ccccc4s3)N2)c1` (stereo not shown) [CBK264362], 108%. Turning to `CCC(=O)Nc1ccc(-c2csc(N(C)C)n2)cc1` [CBK304294C], the viability at 28.5 h, 10 µM came out at 103%. Take `O=C(O)c1cccc(-c2cncc(NCCCN3CCOCC3)n2)c1` [CBK037850]: the viability at 28.5 h, 10 µM is 104%.

As for `Nc1cc2c(ncn2[C@@H]2C[C@@H](O)[C@@H](CO)O2)c(=O)[nH]1` [CBK201196], the viability at 28.5 h, 10 µM was 88.1%. On to `COCC(=O)NC1CCN(CC2(c3cccc(F)c3)CCCC2)CC1` [CBK282546], for which the viability at 28.5 h, 10 µM was 108%. As for `O=C(CNC(=O)C1CCCCC1)NNC(=O)c1ccccc1Br` [CBK267828], the viability at 28.5 h, 10 µM worked out at 102%. On to `CC(=O)Nc1cccc(C(=O)N2CCOC(CCc3ccccc3)C2)c1` (stereo not shown) [CBK304629], for which the viability at 28.5 h, 10 µM was 88.7%. The result for `O=C(Cn1cnc2ccccc21)N1CCc2[nH]c3ccccc3c2C1` [CBK281860] reads 74.7%. In the case of `Cn1ccc(C2CCCCCN2S(=O)(=O)c2ccc3[nH]c(=O)[nH]c(=O)c3c2)n1` (stereo not shown) [CBK286407], the viability at 28.5 h, 10 µM is 71.1%. Take `CS(=O)(=O)N1CC2(CCN(C(=O)N(CCN)CCc3ccc(Cl)cc3)CC2)c2ccccc21` [CBK001687C]: the viability at 28.5 h, 10 µM is 111%.

On to `CCN1CCN(CC(=O)N/N=C/c2ccc(F)cc2)CC1` [CBK261615], for which the viability at 28.5 h, 10 µM came out at 108%. The result for `S=C(NCCc1ccccc1)NCCn1cc(Cl)cn1` [CBK266912] reads 103%; that for `CCCC/C=C/c1cnc2[nH]c(=O)n([C@H](CO)C(C)C)c2n1` [CBK064970], 95%. For `Cn1cc(CN2CCCC(c3cc4ccccc4cn3)C2)cn1` (stereo not shown) [CBK285042], the viability at 28.5 h, 10 µM amounted to 101%.
